Assay results: ChEMBL document CHEMBL1122521, “Nucleic acid related compounds. 47. Synthesis and biological activities of pyrimidine and purine "acyclic" nucleoside analogues” (J Med Chem, 1984)
Converted amounts (≈) assume the structure as drawn.

Key:
Assay type in all cases: functional
[1] = tested on: Human alphaherpesvirus 2; assay: Concentration required to reduce cytopathogenicity of Herpes simplex virus type 2 (strain G) by 50% in primary rabbit kidney (PRK) cells
[2] = tested on: Human alphaherpesvirus 1; assay: Concentration required to reduce cytopathogenicity of Herpes simplex virus type 1 (strain KOS) by 50% in primary rabbit kidney (PRK) cells
[3] = tested on: L1210; assay: Inhibitory concentration required to reduce [3H-methyl]-dThd C incorporation into cellular DNA by 50% in Murine Leukemia L1210 cells; settings: Mus musculus, read-out: ID50 (the source's name)
[4] = tested on: L1210; assay: Inhibitory concentration required to reduce [3H1',2']dUrd incorporation into cellular DNA by 50% in Murine Leukemia L1210 cells; settings: Mus musculus, read-out: ID50 (the source's name)
[5] = tested on: L1210; assay: Inhibitory concentration required to reduce cell growth of Murine Leukemia L1210 cells; settings: Mus musculus, read-out: ID50 (the source's name)
[6] = Inhibitory concentration required to reduce incorporation of 2-deoxythymidine (dThd) into DNA of Primary Rabbit kidney (PRK) cell cultures; settings: Oryctolagus cuniculus, read-out: ID50 (the source's name)
[7] = Inhibitory concentration required to reduce incorporation of 2-deoxyuridine (dUrd) into DNA of Primary Rabbit kidney (PRK) cell cultures; settings: Oryctolagus cuniculus, read-out: ID50 (the source's name)
[8] = Inhibitory concentration required to reduce 2-deoxyuridine ([3H-1'2']dUrd) incorporation into DNA of Primary Rabbit kidney (PRK) cell cultures; settings: Oryctolagus cuniculus, read-out: ID50 (the source's name)
[9] = Ratio of ID50 for dThd or dUrd incorporation to ID50 for HSV-1, HSV-2 or VV(whatever was lowest)
[10] = tested on: Vesicular stomatitis virus; assay: Concentration required to reduce cytopathogenicity of Vesicular stomatitis virus by 50% in primary rabbit kidney (PRK) cells
[11] = tested on: L1210; assay: Inhibitory concentration required to reduce [3H1',2']dUrd incorporation into cellular DNA by 50 %; settings: Mus musculus, read-out: ID50 (the source's name)
[12] = tested on: L1210; assay: Inhibitory concentration required to reduce [14C-2]-dUrd incorporation into cellular DNA by 50% in Murine Leukemia L1210 cells; settings: Mus musculus, read-out: ID50 (the source's name)

Cc1cn(COCCO)c(=O)[nH]c1=O
ID50 [1]: >400 µg/mL
ID50 [2]: >400 µg/mL
IC50 [3]: > 1000 µg/mL
IC50 [4]: > 1000 µg/mL
IC50 [5]: > 1000 µg/mL
IC50 [6]: > 400 µg/mL
IC50 [7]: > 400 µg/mL

Nc1nc2c(nc(Cl)n2COCCO)c(=O)[nH]1
ID50 [1]: >400 µg/mL
ID50 [2]: 70 µg/mL (≈ 270 µM)
IC50 [3]: > 1000 µg/mL
IC50 [4]: > 1000 µg/mL
IC50 [5]: 350 µg/mL (≈ 1350 µM)
IC50 [8]: > 400 µg/mL
IC50 [6]: > 400 µg/mL
Antiviral index [9]: > 6

CC(=O)OCCOCn1cnc2c(Cl)nc(N)nc21
ID50 [1]: 20 µg/mL (≈ 70 µM)
ID50 [2]: 20 µg/mL (≈ 70 µM)
IC50 [3]: > 1000 µg/mL
IC50 [4]: > 1000 µg/mL
IC50 [5]: 91 µg/mL (≈ 319 µM)
IC50 [8]: 71 µg/mL (≈ 249 µM)
IC50 [6]: 55 µg/mL (≈ 193 µM)
ID50 [10]: >400 µg/mL
Antiviral index [9]: 2.7

Nc1nc2c(nc(I)n2COCCO)c(=O)[nH]1
ID50 [1]: 0.4 µg/mL (≈ 1.14 µM)
ID50 [2]: 0.4 µg/mL (≈ 1.14 µM)
IC50 [3]: > 1000 µg/mL
IC50 [11]: > 1000 µg/mL
IC50 [5]: 39 µg/mL (≈ 111 µM)
IC50 [6]: ≥ 350 µg/mL
IC50 [7]: ≥ 250 µg/mL
ID50 [10]: >400 µg/mL
Antiviral index [9]: 625

Nc1nc(O)c2nc(N3CCCCC3)n(COCCO)c2n1
ID50 [1]: 150 µg/mL (≈ 486 µM)
ID50 [2]: 70 µg/mL (≈ 227 µM)
IC50 [3]: > 500 µg/mL
IC50 [4]: > 500 µg/mL
IC50 [5]: > 500 µg/mL
IC50 [6]: 250 µg/mL (≈ 811 µM)
IC50 [7]: 333 µg/mL (≈ 1080 µM)
ID50 [10]: >400 µg/mL
Antiviral index [9]: 3.5

O=c1[nH]c(=O)n([C@H]2C[C@H](O)[C@@H](CO)O2)cc1I [IDOXURIDINE]
ID50 [1]: 0.3 µg/mL (≈ 0.847 µM)
ID50 [2]: 0.1 µg/mL (≈ 0.282 µM)
IC50 [12]: 0.82 µg/mL (≈ 2.32 µM)
IC50 [3]: 4.3 µg/mL (≈ 12.1 µM)
IC50 [5]: 61 µg/mL (≈ 172 µM)
IC50 [6]: 2 µg/mL (≈ 5.65 µM)
IC50 [7]: 0.3 µg/mL (≈ 0.847 µM)
ID50 [10]: >400 µg/mL
Antiviral index [9]: 3

CC(=O)OCCOCn1cc(/C=C/Br)c(=O)[nH]c1=O
ID50 [1]: >400 µg/mL
ID50 [2]: >400 µg/mL
IC50 [3]: > 1000 µg/mL
IC50 [4]: > 1000 µg/mL
IC50 [5]: > 1000 µg/mL
IC50 [6]: > 200 µg/mL
IC50 [7]: > 400 µg/mL

Nc1nc(=O)n(COCCO)cc1[N+](=O)[O-]
ID50 [1]: >400 µg/mL
ID50 [2]: >400 µg/mL
IC50 [3]: > 500 µg/mL
IC50 [4]: 374 µg/mL (≈ 1620 µM)
IC50 [5]: 71 µg/mL (≈ 308 µM)
IC50 [6]: > 400 µg/mL
IC50 [7]: > 400 µg/mL

Nc1nc2c(nc(Br)n2COCCO)c(=O)[nH]1
ID50 [1]: 0.5 µg/mL (≈ 1.64 µM)
ID50 [2]: 0.5 µg/mL (≈ 1.64 µM)
IC50 [3]: > 500 µg/mL
IC50 [11]: > 500 µg/mL
IC50 [5]: 355 µg/mL (≈ 1170 µM)
IC50 [6]: 340 µg/mL (≈ 1120 µM)
IC50 [7]: 225 µg/mL (≈ 740 µM)
ID50 [10]: >400 µg/mL
Antiviral index [9]: 450

Nc1nc2c(nc(O)n2COCCO)c(=O)[nH]1
ID50 [1]: 25 µg/mL (≈ 104 µM)
ID50 [2]: 15 µg/mL (≈ 62.2 µM)
IC50 [3]: > 500 µg/mL
IC50 [11]: > 500 µg/mL
IC50 [5]: > 500 µg/mL
IC50 [8]: ≥ 100 µg/mL
IC50 [6]: 48 µg/mL (≈ 199 µM)
ID50 [10]: >400 µg/mL
Antiviral index [9]: 3.2

Nc1nc(=O)ccn1COCCO
ID50 [1]: >400 µg/mL
ID50 [2]: >400 µg/mL
IC50 [3]: > 500 µg/mL
IC50 [4]: > 500 µg/mL
IC50 [5]: > 500 µg/mL
IC50 [6]: > 400 µg/mL
IC50 [7]: > 400 µg/mL

O=c1[nH]c(=O)n(COCCO)cc1/C=C/Br
ID50 [1]: >400 µg/mL
ID50 [2]: >400 µg/mL
IC50 [3]: > 1000 µg/mL
IC50 [4]: > 1000 µg/mL
IC50 [5]: > 1000 µg/mL
IC50 [6]: > 200 µg/mL
IC50 [7]: > 400 µg/mL

O=c1ccn(COCCO)c(=O)[nH]1
ID50 [1]: >400 µg/mL
ID50 [2]: >400 µg/mL
IC50 [3]: > 1000 µg/mL
IC50 [4]: > 1000 µg/mL
IC50 [5]: > 1000 µg/mL
IC50 [6]: > 400 µg/mL
IC50 [7]: > 400 µg/mL

CC(=O)OCCOCn1cnc2c(Cl)nc(Cl)nc21
ID50 [1]: >10 µg/mL
ID50 [2]: 2 µg/mL (≈ 6.55 µM)
IC50 [3]: 412 µg/mL (≈ 1350 µM)
IC50 [4]: 98 µg/mL (≈ 321 µM)
IC50 [5]: 12 µg/mL (≈ 39.3 µM)
IC50 [6]: 10 µg/mL (≈ 32.8 µM)
IC50 [7]: 2 µg/mL (≈ 6.55 µM)
Antiviral index [9]: 1

O=c1[nH]c(=O)n(COCCO)cc1Br
ID50 [1]: >400 µg/mL
ID50 [2]: >400 µg/mL
IC50 [3]: > 1000 µg/mL
IC50 [4]: > 1000 µg/mL
IC50 [5]: > 1000 µg/mL
IC50 [6]: > 400 µg/mL
IC50 [7]: > 400 µg/mL

CN(C)c1ncnc2c1ncn2COCCO
ID50 [1]: >400 µg/mL
ID50 [2]: >400 µg/mL
IC50 [3]: > 500 µg/mL
IC50 [4]: > 500 µg/mL
IC50 [5]: > 500 µg/mL
IC50 [6]: 400 µg/mL (≈ 1690 µM)
IC50 [7]: > 350 µg/mL
Antiviral index [9]: < 0.9

O=c1[nH]c(=O)n(COCCO)cc1F
ID50 [1]: >400 µg/mL
ID50 [2]: >400 µg/mL
IC50 [3]: > 1000 µg/mL
IC50 [4]: > 1000 µg/mL
IC50 [5]: > 1000 µg/mL
IC50 [6]: > 400 µg/mL
IC50 [7]: > 400 µg/mL
